# Experimental data published in patent US9624249B2, “Nucleoside kinase bypass compositions and methods” (Merck Sharp & Dohme Corp., priority 2013, dated 2017).
# Like-named read-outs stand apart in the source and are kept apart here.
# What was measured:
# Type in all cases: cell-based
# [1] = test system: hepatitis virus C (HCV) genotype 1c; assay: HCV replicon, genotype printed as 1c; conditions: read-out: Replicon: EC50 (1c)
# Tox: EdU/CellCount CC50 = assay: Tox: EdU/CellCount CC50
# [2] = test system: hepatitis virus C (HCV) genotype 1b; assay: HCV subgenomic replicon assay (RHEPTAQ), genotype 1b; conditions: Hepatitis C virus, Table 4, genotype 1b; read-out: Replicon: EC50 (1b)
# Text: (§1) Table 3 and Table 4 summarize the measured activities of these prodrugs as assessed in a subgenomic replicon assay (RHEPTAQ), against genotypes 1a, 1b and 2a.
# [3] = test system: hepatitis virus C (HCV) genotype 1a; assay: HCV subgenomic replicon assay (RHEPTAQ), genotype 1a; conditions: Hepatitis C virus, Table 4, genotype 1a; read-out: Replicon: EC50 (1a)
# Text: as §1
smiles,measurement,setting,value
C[C@@]1(F)[C@@H]2OP(=O)(OC3CSSC[C@@H]3OCc3ccccc3)OCC2O[C@H]1n1ccc(=O)[nH]c1=O (some centres unmarked),EC50,[1],101 nM
same,CC50,"Tox: EdU/CellCount CC50; CellCount readout, read-out: Tox: CellCount CC50",85000 nM
same,CC50,"Tox: EdU/CellCount CC50; EdU readout, read-out: Tox: EdU CC50",30000 nM
same,EC50,[2],107 nM
same,EC50,[3],92 nM
